# Experimental data published in patent publication US20260070945A1, “MACROCYCLIC IMMUNOMODULATORS” (Bristol-Myers Squibb Company, priority 2022, published 2026).
# Where a SMILES comes first, the peptide text is derived from it. Bridges are numbered along the chain shown (N, C = ends). [ ]: non-standard residue; d: D form. The star is where a group is joined. ξ: configuration not given here. Phe(4-COOH) = N[C@@H](Cc1ccc(C(=O)O)cc1)C(=O)O; Bip = N[C@@H](Cc1ccc(-c2ccccc2)cc1)C(=O)O; Phe(3-Me) = Cc1cccc(C[C@H](N)C(=O)O)c1; hArg = N=C(N)NCCCC[C@H](N)C(=O)O; 4Pal = N[C@@H](Cc1ccncc1)C(=O)O; Aad = N[C@@H](CCCC(=O)O)C(=O)O; Cha = N[C@@H](CC1CCCCC1)C(=O)O; Ile(3ξ) = CCC(C)[C@H](N)C(=O)O; Thr(3ξ) = CC(O)[C@H](N)C(=O)O; hSer = N[C@@H](CCO)C(=O)O; Carboxymethyl = O=C(O)C*; NMeA = CN[C@@H](C)C(=O)O; Orn = NCCC[C@H](N)C(=O)O; Aun = NCCCCCCCCCCC(=O)O; Dab = NCC[C@H](N)C(=O)O; Dap = NC[C@H](N)C(=O)O; AEEA = NCCOCCOCC(=O)O
# Target: T1, PD-1/PD-L1 interaction (PE-labeled human PD-L1-Ig binding to Jurkat cell line over-expressing human PD-1) (Homo sapiens, UniProt Q15116)
# T1 construct: expressed in transfected cells; host or cells: Jurkat
# T1 sequence (Q15116 25-288): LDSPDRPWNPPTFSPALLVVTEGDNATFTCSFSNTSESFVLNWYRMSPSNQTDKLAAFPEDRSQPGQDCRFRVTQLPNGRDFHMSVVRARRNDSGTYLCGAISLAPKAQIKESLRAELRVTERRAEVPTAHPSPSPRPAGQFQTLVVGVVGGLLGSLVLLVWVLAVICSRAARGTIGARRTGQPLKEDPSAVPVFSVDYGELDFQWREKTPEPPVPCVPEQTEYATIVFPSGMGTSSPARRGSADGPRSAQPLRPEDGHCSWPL
# Assay: Jurkat-PD-1 Cell Binding High-Content Screening Assay (CBA)
# Conditions: Jurkat-hPD-1 cells, PE-labeled PD-L1-Ig 20 nM final; read-out: Jurkat HPD1 PDL1 IC50
# Method in brief: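 High-content imaging read-out of PE-PD-L1-Ig binding (20 nM final, 1 h) to Jurkat-hPD-1 cells, after 2 h compound exposure at 37 °C in DMEM with 10% FCS. Nuclei counterstained with Hoechst 33342 after paraformaldehyde fixation.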
row,IC50,SMILES
1,17.8 nM,CC(C)C[C@@H]1NC(=O)[C@H](Cc2c[nH]c3ccccc23)NC(=O)[C@H](CC(=O)O)NC(=O)[C@H](Cc2ccc(C(=O)O)cc2)NC(=O)[C@H](Cc2ccc(OCC(=O)O)cc2)NC(=O)CSC[C@@H](C(=O)N[C@@H](CCCCN)C(=O)NCCCCCCCCCCC(=O)O)NC(=O)[C@H](CCCN)NC(=O)[C@H](C(C)C)NC(=O)[C@H](CC2CCCCC2)NC(=O)[C@H](CCN)NC(=O)[C@@H](CC(C)C)NC(=O)[C@H](C)N(C)C(=O)[C@H](C(C)C)NC(=O)[C@H](Cc2ccc(-c3ccccc3)cc2)NC1=O [Example 2159] ({CH2CO}-Y(Carboxymethyl)[Phe(4-COOH)]DWL[Bip]V[NMeA][dL][Dab][Cha]V[Orn]CK[Aun]-OH; thioether N-14)
2,17.6 nM,CC(C)C[C@@H]1NC(=O)[C@H](Cc2c[nH]c3ccccc23)NC(=O)[C@H](CC(=O)O)NC(=O)[C@H](Cc2ccc(O)cc2)NC(=O)[C@H](Cc2ccncc2)NC(=O)CSC[C@@H](C(=O)NCCOCCOCC(=O)N[C@@H](CCCN)C(=O)NCCCCCCCCCCC(=O)O)NC(=O)[C@H](CCCN)NC(=O)[C@H](C(C)C)NC(=O)[C@H](CC2CCCCC2)NC(=O)[C@H](CCN)NC(=O)[C@@H](CC(C)C)NC(=O)[C@H](C)N(C)C(=O)[C@H](C(C)C)NC(=O)[C@H](Cc2ccc(-c3ccccc3)cc2)NC1=O [Example 2163] ({CH2CO}-[4Pal]YDWL[Bip]V[NMeA][dL][Dab][Cha]V[Orn]C[AEEA][Orn][Aun]-OH; thioether N-14)
3,15.6 nM,Cc1cccc(C[C@@H]2NC(=O)[C@H](CC(=O)O)NC(=O)[C@H](Cc3ccc(OCC(=O)O)cc3)NC(=O)[C@H](CCN)NC(=O)CSC[C@@H](C(=O)N[C@@H](CCN)C(=O)NCCCCCCCCCCC(=O)O)NC(=O)[C@H](CO)NC(=O)[C@H](C(C)O)NC(=O)[C@H](CC3CCCCC3)NC(=O)[C@H](CCN)NC(=O)[C@@H](CC(C)C)NC(=O)[C@H](C)N(C)C(=O)[C@H](Cc3ccc(OCC(=O)O)cc3)NC(=O)[C@H](Cc3ccc(-c4ccccc4)cc3)NC(=O)[C@H](Cc3ccc(OCC(=O)O)cc3)NC2=O)c1 (stereo partly drawn) [Example 2425] ({CH2CO}-[Dab]Y(Carboxymethyl)D[Phe(3-Me)]Y(Carboxymethyl)[Bip]Y(Carboxymethyl)[NMeA][dL][Dab][Cha][Thr(3ξ)]SC[Dab][Aun]-OH; thioether N-14)
4,13.4 nM,CC(C)C[C@H]1NC(=O)[C@H](C)N(C)C(=O)[C@H](C(C)C)NC(=O)[C@H](Cc2ccc(-c3ccccc3)cc2)NC(=O)[C@H](C(C)C)NC(=O)[C@H](Cc2c[nH]c3ccccc23)NC(=O)[C@H](CC(=O)O)NC(=O)[C@H](Cc2ccc(OCC(=O)O)cc2)NC(=O)[C@H](CCCCNC(=N)N)NC(=O)CSC[C@@H](C(=O)N[C@@H](CCN)C(=O)NCCCCCCCCCCC(=O)O)NC(=O)[C@H](CO)NC(=O)[C@H](C(C)C)NC(=O)[C@H](CC2CCCCC2)NC(=O)[C@H](CCN)NC1=O [Example 2191] ({CH2CO}-[hArg]Y(Carboxymethyl)DWV[Bip]V[NMeA][dL][Dab][Cha]VSC[Dab][Aun]-OH; thioether N-14)
5,46 nM,Cc1cccc(C[C@@H]2NC(=O)[C@H](CC(=O)O)NC(=O)[C@H](Cc3ccc(OCC(=O)O)cc3)NC(=O)[C@H](C(C)O)NC(=O)CSC[C@@H](C(=O)N[C@@H](CCN)C(=O)NCCCCCCCCCCC(=O)O)NC(=O)[C@H](C(C)O)NC(=O)[C@H](C(C)C)NC(=O)[C@H](CC3CCCCC3)NC(=O)[C@H](CCN)NC(=O)[C@@H](CC(C)C)NC(=O)[C@H](C)N(C)C(=O)[C@H](CCC(=O)O)NC(=O)[C@H](Cc3ccc(-c4ccccc4)cc3)NC(=O)[C@H](CCC(=O)O)NC2=O)c1 (stereo partly drawn) [Example 2303] ({CH2CO}-[Thr(3ξ)]Y(Carboxymethyl)D[Phe(3-Me)]E[Bip]E[NMeA][dL][Dab][Cha]V[Thr(3ξ)]C[Dab][Aun]-OH; thioether N-14)
6,26.7 nM,CC(C)C[C@@H]1NC(=O)[C@H](Cc2c[nH]c3ccccc23)NC(=O)[C@H](CC(=O)O)NC(=O)[C@H](Cc2ccc(C(=O)O)cc2)NC(=O)[C@H](Cc2ccc(OCC(=O)O)cc2)NC(=O)CSC[C@@H](C(=O)NCCOCCOCC(=O)NCCCCCCCCCCC(=O)O)NC(=O)[C@H](CCO)NC(=O)[C@H](C(C)C)NC(=O)[C@H](CC2CCCCC2)NC(=O)[C@H](CCN)NC(=O)[C@@H](CC(C)C)NC(=O)[C@H](C)N(C)C(=O)[C@H](CCC(N)=O)NC(=O)[C@H](Cc2ccc(-c3ccccc3)cc2)NC1=O [Example 2226] ({CH2CO}-Y(Carboxymethyl)[Phe(4-COOH)]DWL[Bip]Q[NMeA][dL][Dab][Cha]V[hSer]C[AEEA][Aun]-OH; thioether N-14)
7,169 nM,CCC(C)[C@@H]1NC(=O)[C@H](CC(C)C)NC(=O)[C@H](CCN)NC(=O)[C@@H](CC(C)C)NC(=O)[C@H](C)N(C)C(=O)[C@H](C(C)CC)NC(=O)[C@H](Cc2ccc(-c3ccccc3)cc2)NC(=O)[C@H](C(C)CC)NC(=O)[C@H](Cc2c[nH]c3ccccc23)NC(=O)[C@H](CC(=O)O)NC(=O)[C@H](Cc2ccc(OCC(=O)O)cc2)NC(=O)[C@H](C(C)O)NC(=O)CSC[C@@H](C(=O)N[C@H](CC(N)=O)C(=O)NCCOCCOCC(=O)N[C@@H](CCCN)C(=O)NCCCCCCCCCCC(=O)O)NC(=O)[C@H](CO)NC1=O (stereo partly drawn) [Example 2082] ({CH2CO}-[Thr(3ξ)]Y(Carboxymethyl)DW[Ile(3ξ)][Bip][Ile(3ξ)][NMeA][dL][Dab]L[Ile(3ξ)]SC[dN][AEEA][Orn][Aun]-OH; thioether N-14)
8,7 nM,Cc1cccc(C[C@@H]2NC(=O)[C@H](CC(=O)O)NC(=O)[C@H](Cc3ccc(OCC(=O)O)cc3)NC(=O)[C@H](CN)NC(=O)CSC[C@@H](C(=O)N[C@@H](CCN)C(=O)NCCOCCOCC(=O)NCCCCCCCCCCC(=O)O)NC(=O)[C@H](CCCN)NC(=O)[C@H](C(C)C)NC(=O)[C@H](CC3CCCCC3)NC(=O)[C@H](CCN)NC(=O)[C@@H](CC(C)C)NC(=O)[C@H](C)N(C)C(=O)[C@H](Cc3ccc(O)cc3)NC(=O)[C@H](Cc3ccc(-c4ccccc4)cc3)NC(=O)[C@H](C(C)C)NC2=O)c1 [Example 1314] ({CH2CO}-[Dap]Y(Carboxymethyl)D[Phe(3-Me)]V[Bip]Y[NMeA][dL][Dab][Cha]V[Orn]C[Dab][AEEA][Aun]-OH; thioether N-14)
9,29.3 nM,Cc1cccc(C[C@@H]2NC(=O)[C@H](CC(=O)O)NC(=O)[C@H](Cc3ccc(OCC(=O)O)cc3)NC(=O)[C@H](CCCC(=O)O)NC(=O)CSC[C@@H](C(=O)N[C@@H](CCN)C(=O)NCCCCCCCCCCC(=O)O)NC(=O)[C@H](CO)NC(=O)[C@H](C(C)C)NC(=O)[C@H](CC3CCCCC3)NC(=O)[C@H](CCN)NC(=O)[C@@H](CC(C)C)NC(=O)[C@H](C)N(C)C(=O)[C@H](Cc3ccc(O)cc3)NC(=O)[C@H](Cc3ccc(-c4ccccc4)cc3)NC(=O)[C@H](Cc3ccc(OCC(=O)O)cc3)NC2=O)c1 [Example 1280] ({CH2CO}-[Aad]Y(Carboxymethyl)D[Phe(3-Me)]Y(Carboxymethyl)[Bip]Y[NMeA][dL][Dab][Cha]VSC[Dab][Aun]-OH; thioether N-14)
10,11.5 nM,CC(C)C[C@@H]1NC(=O)[C@H](Cc2c[nH]c3ccccc23)NC(=O)[C@H](CC(=O)O)NC(=O)[C@H](Cc2ccc(C(=O)O)cc2)NC(=O)[C@H](Cc2ccc(OCC(=O)O)cc2)NC(=O)CSC[C@@H](C(=O)NCC(=O)N[C@@H](CN)C(=O)NCCCCCCCCCCC(=O)O)NC(=O)[C@H](CO)NC(=O)[C@H](C(C)C)NC(=O)[C@H](CC2CCCCC2)NC(=O)[C@H](CCN)NC(=O)[C@@H](CC(C)C)NC(=O)[C@H](C)N(C)C(=O)[C@H](C(C)C)NC(=O)[C@H](Cc2ccc(-c3ccccc3)cc2)NC1=O [Example 1036] ({CH2CO}-Y(Carboxymethyl)[Phe(4-COOH)]DWL[Bip]V[NMeA][dL][Dab][Cha]VSCG[Dap][Aun]-OH; thioether N-14)
